The values below are quoted from earlier work in PMC9006653 (The Journal of Biological Chemistry, 2022).

The subject of data set [1] is 10 human tumor cell lines.
Data set [2] has as its system five cancer cell lines.

In the case of cycloviolacin O2 [cyO2], the “fold more potent (cytotoxicity) compared to varv A and varv F” value in data set [1] is “over 20 fold”. Besides, the “fold more active than 11 Möbius cyclotides” value in data set [2] is reported as “over ten-fold”.
